Measurements reported in ChEMBL document CHEMBL5335789, “Tea-break with epigallocatechin gallate derivatives - Powerful polyphenols of great potential for medicine” (Eur J Med Chem, 2023).
Values belong to the compound of their own block, whether it stands above or below them.

Assays:
MDA-MB-231 [1] = assay: Cytotoxicity against human MDA-MB-231 cells assessed as reduction in cell viability measured after 24 hrs by MTT assay; details: MDA-MB-231, 24 h
MDA-MB-231 [2] = assay: Anticancer activity against human MDA-MB-231 cells assessed as reduction in cell viability measured after 72 hrs by MTT assay; format: functional
NCI-H441 = assay: Antiproliferative activity against human NCI-H441 cells expressing wild type EGFR assessed as reduction in cell viability incubated for 48 hrs by MTT assay; format: functional, cell-based; details: NCI-H441, 48 h
NCI-H292 = assay: Antiproliferative activity against human NCI-H292 cells expressing wild type EGFR assessed as reduction in cell viability incubated for 48 hrs by MTT assay; format: functional, cell-based; details: NCI-H292, 48 h
[3] = Antiproliferative activity against human NCI-H1781 cells expressing wild type EGFR assessed as reduction in cell viability incubated for 48 hrs by MTT assay; format: functional, cell-based; details: NCI-H1781, 48 h
A549 = assay: Antiproliferative activity against human A549 cells expressing wild type EGFR assessed as reduction in cell viability incubated for 48 hrs by MTT assay; format: functional, cell-based; details: A549, 48 h
U-937 [4] = assay: Antiproliferative activity against human U-937 cells assessed as cell growth inhibition measured after 72 hrs; format: functional, cell-based; details: U-937, 72 h
U-937 [5] = assay: Antiproliferative activity against human U-937 cells measured upto 72 hrs; format: functional, cell-based; details: U-937, 72 h
U-266 = assay: Anticancer activity against human U-266 cells assessed as inhibition of cell growth; format: functional, cell-based
LNCaP = assay: Antiproliferative activity against human LNCaP assessed as reduction in cell viability incubated for 72 hrs by MTT assay; format: functional, cell-based
MDA-MB-231 [6] = assay: Cytotoxicity against human MDA-MB-231 cells assessed as cell growth inhibition incubated for 48 hrs by SRB assay; format: functional, cell-based; details: MDA-MB-231, 48 h
MDA-MB-231 [7] = assay: Antitumor activity against human MDA-MB-231 cells xenografted in athymic nude mouse assessed as the inhibition of tumor growth at 50 mg/kg, sc administered daily once for 31 days relative to control; format: functional; design: scale not given: the % may be the effect or the level left; details: time 31 day
MDA-MB-231 [8] = assay: Cytotoxicity against human MDA-MB-231 cells assessed as reduction in cell viability incubated for 24 hrs by MTT assay; format: functional, cell-based; details: MDA-MB-231, 24 h
ZR-75-1 = assay: Cytotoxicity against human ZR-75-1 cells assessed as reduction in cell viability incubated for 24 hrs by MTT assay; format: functional, cell-based; details: ZR-75-1, 24 h
NCI-H460 = assay: Cytotoxicity against human NCI-H460 cells assessed as reduction in cell viability incubated for 24 hrs by MTT assay; format: functional, cell-based; details: NCI-H460, 24 h
SK-OV-3 = assay: Cytotoxicity against human SK-OV-3 cells assessed as reduction in cell growth measured after 24 hrs by MTT assay; format: functional, cell-based; details: SK-OV-3, 24 h
A-431 = assay: Cytotoxicity against human A-431 cells assessed as reduction in cell growth measured after 24 hrs by MTT assay; format: functional, cell-based; details: A-431, 24 h
SK-BR-3 [9] = assay: Antiproliferative activity against human SK-BR-3 cells assessed as inhibition of cell proliferation incubated for 3 days by sulforhodamine B colorimetric assay; format: functional, cell-based; details: SK-BR-3, 72 h
MCF7 [10] = assay: Cytotoxicity against human MCF7 cells assessed as reduction in cell growth incubated for 24 hrs by MTT assay; format: functional, cell-based; details: MCF7, 24 h
HCT-116 = assay: Cytotoxicity against human HCT-116 cells assessed as reduction in cell growth measured after 24 hrs by MTT assay; format: functional, cell-based; details: HCT-116, 24 h
SK-BR-3 [11] = assay: Cytotoxicity against human SK-BR-3 cells assessed as reduction in cell growth incubated for 24 hrs by MTT assay; format: functional, cell-based; details: SK-BR-3, 24 h
PANC-1 = assay: Cytotoxicity against human PANC-1 cells assessed as reduction in cell viability measured after 24 hrs by MTT assay; format: functional, cell-based; details: PANC-1, 24 h
[12] = Inhibition of Streptococcus sobrinus glycosyl transferase
MCF7 [13] = assay: Antiproliferative activity against human MCF7 cells assessed as reduction in cell viability incubated for 72 hrs by MTT assay; format: functional, cell-based; details: MCF7, 72 h
K562 = assay: Antiproliferative activity against human K562 cells assessed as reduction in cell viability incubated for 48 hrs by MTT assay; format: functional, cell-based; details: K562, 48 h

SMILES: CC(=O)Oc1cc(OC(C)=O)c2c(c1)O[C@H](c1cc(OC(C)=O)c(OC(C)=O)c(OC(C)=O)c1)[C@H](OC(=O)c1cc(OC(C)=O)c(OC(C)OC(=O)OC(C)C)c(OC(C)=O)c1)C2 (stereo not given in full)
CC50 (MDA-MB-231 [1]): 53.9 µM

SMILES: CC(=O)Oc1cc(OC(C)=O)c2c(c1)O[C@H](c1cc(OC(C)=O)c(OC(C)=O)c(OC(C)=O)c1)[C@H](OC(=O)c1cccc(F)c1)C2
Activity (MDA-MB-231 [2]): 70%

SMILES: O=C(Nc1ccccc1NC(=O)c1ccc(O)c(O)c1)c1ccc(O)c(O)c1
IC50 (U-937 [4]): 25 µM
IC50 (U-937 [5]): 0.72 µM

SMILES: COc1cc([C@H]2Oc3cccc(OC)c3C[C@H]2OC(=O)c2cc(O)c(O)c(O)c2)cc(O)c1O
IC50 (U-266): 0.8 µM

SMILES: O=C(Oc1cc(OC(=O)c2cc(O)c(O)c(O)c2)c2ccccc2c1)c1cc(O)c(O)c(O)c1
IC50 (MDA-MB-231 [6]): 77 µM

SMILES: CC(=O)Oc1cc(OC(C)=O)c2c(c1)O[C@H](c1cc(OC(C)=O)c(OC(C)=O)c(OC(C)=O)c1)[C@H](OC(=O)c1cc(OC(C)=O)c(OC(C)=O)c(OC(C)=O)c1)C2
Activity (MDA-MB-231 [7]): 54%

SMILES: COc1ccc2c(c1)O[C@H](c1cc(OC)c(O)c(OC)c1)[C@H](OC(=O)c1cc(O)c(O)c(O)c1)C2
IC50 (U-266): 0.64 µM

SMILES: O=C(Oc1ccc(OC(=O)c2cc(O)c(O)c(O)c2)c2ccccc12)c1cc(O)c(O)c(O)c1
IC50 (MDA-MB-231 [6]): 104 µM

SMILES: COc1cccc(C(=O)O[C@H]2COc3cc(OC)cc(OC)c3C2)c1
IC50 (MCF7 [13]): 0.77 µM

More lines, main results first:

IC50 (NCI-H441): 30 µM
IC50 (NCI-H292): 30 µM
IC50 (A549): 30 µM
SMILES: O=C(O[C@@H]1Cc2c(O)cc(O)cc2O[C@@H]1c1cc(O)c(O)c(O)c1)c1cc(O)c(OCc2cn([C@H]3O[C@H](CO)[C@@H](O)[C@H](O)[C@H]3O)nn2)c(O)c1
IC50 [3]: 30 µM

IC50 (LNCaP): 36 µM
SMILES: O=C(O[C@@H]1Cc2c(O)cc(O)cc2O[C@@H]1c1ccc(O)c(O)c1)c1cc(O)c(O)c(O)c1 [EPICATECHIN GALLATE]

IC50 (U-937 [4]): 37 µM
IC50 (U-937 [5]): 0.38 µM
SMILES: O=C(Nc1c(-c2ccc(O)c(O)c2)oc2ccccc2c1=O)c1ccc(O)c(O)c1

IC50 (SK-BR-3 [9]): 10 µM
SMILES: O=C(Oc1ccc(-c2ccc(OC(=O)c3cc(O)c(O)c(O)c3)cc2)cc1)c1cc(O)c(O)c(O)c1
IC50 (MDA-MB-231 [6]): 45 µM
IC50 (MDA-MB-231 [8]): 2 µM
IC50 (ZR-75-1): 2 µM
IC50 (NCI-H460): 10 µM
IC50 (SK-OV-3): 10 µM
IC50 (A-431): 10 µM
IC50 (MCF7 [10]): 10 µM
IC50 (HCT-116): 10 µM
IC50 (SK-BR-3 [11]): 2 µM
IC50 (PANC-1): 10 µM

IC50 [12]: 7.7 µM
SMILES: O=C(O[C@@H]1Cc2c(O)cc(O)cc2O[C@@H]1c1cc(O)c(=O)c2c(O)c(O)cc([C@H]3Oc4cc(O)cc(O)c4C[C@H]3O)c2c1)c1cc(O)c(O)c(O)c1 [THEAFLAVIN MONOGALLATES]

IC50 (K562): 17 µM
SMILES: CCCCCCCCCCCCCCCC(=O)Oc1cc([C@H]2Oc3cc(O)cc(O)c3C[C@H]2OC(=O)c2cc(O)c(O)c(O)c2)cc(O)c1O
